The text below walks through data of patent US5015639A, “Substituted benzazepines, their preparation and pharmaceutical compositions containing them” (Schering Corporation, priority 1989, dated 1991).

In general, Ki refers to the dissociation constant of the complex between target and ligand, obtained from inhibition or displacement. The minimal effective dose is the smallest amount tested that counted as effective.

Experiment [1] deals with T1, D-2 receptor (Rattus norvegicus, UniProt P61169).
T1 construct: Striatal tissue was excised, pooled, and homogenized; tissue Charles River Breeding Laboratories, Mass; (animals); host or cells: striatum of male Sprague-Dawley rats, washed membrane pellet
T1 sequence (P61169 whole entry): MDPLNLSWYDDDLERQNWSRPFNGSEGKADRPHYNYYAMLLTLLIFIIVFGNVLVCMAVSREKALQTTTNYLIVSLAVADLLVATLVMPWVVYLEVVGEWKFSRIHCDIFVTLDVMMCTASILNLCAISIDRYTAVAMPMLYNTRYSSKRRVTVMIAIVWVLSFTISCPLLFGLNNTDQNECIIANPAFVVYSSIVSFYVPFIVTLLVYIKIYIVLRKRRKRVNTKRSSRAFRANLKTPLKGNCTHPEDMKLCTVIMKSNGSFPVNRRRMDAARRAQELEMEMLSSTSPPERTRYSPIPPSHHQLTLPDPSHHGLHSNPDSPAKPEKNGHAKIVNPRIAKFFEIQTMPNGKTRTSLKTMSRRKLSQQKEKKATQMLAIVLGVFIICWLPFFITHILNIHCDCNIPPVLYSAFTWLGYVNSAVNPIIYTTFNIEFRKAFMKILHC
In words: Competitive inhibition assay vs. 3H-spiperone (D-2 receptor binding). Further details: species or system Male Sprague-Dawley rat (striatal tissue). To be noted: rat striatal homogenate, 0.2 nM 3H-spiperone, pH 7.4, 37° C., 15 min. The procedure: (§1) Many compounds capable of effecting reproducible physiological changes in neural tissues are believed to operate by binding at one or more receptor sites.
(§2) Tritiated SCH 23390 and tritiated spiperone (a potent D-2 ligand) were obtained as described in the Billard et al. reference supra and serially diluted in 0.05 M Tris buffer, pH 7.4, as required. A compound of the invention is diluted in 0.05 M Tris buffer, pH 7.4, as required.
(§3) Male Sprague-Dawley rats (200 to 250 g) from Charles River Breeding Laboratories, Mass. were used to obtain brain tissue. The rats were humanely sacrificed and their brains removed and placed on ice. Striatal tissue was excised, pooled, and homogenized (Brinkman Polytron, 10 sec) in 100 volumes (w/v) of ice cold 50 mM Tris buffer, pH 7.4 (at 25° C.). The homogenate was centrifuged at 20,000 xg for 10 min. The resultant pellet was rehomogenized in Tris buffer and centrifuged again. The final pellet was resuspended in 50 mM Tris buffer pH 7.4 containing 120 mM NaCl, 5 mM KCl, 2 mM CaCl2, and 1 mM MgCl2.
(§4) Polypropylene incubation tubes received 100 μl of the individual test compounds at various concentrations dissolved or suspended in 0.05 M Tris, pH 7.4 containing 4 mg/ml methylcellulose, 100 μl of a solution of ^3 H-SCH 23390 in Tris buffer (final reaction mixture concentration =0.3 nM) or 100 μl of a solution of 3H-spiperone in Tris buffer (final concentration =0.2 nM) and 800 μl of tissue suspension (ca. 3 mg/assay). Tubes were incubated at 37° C. for 15 minutes and rapidly vacuum filtered through Whatman GF/B filters and rinsed 4 times with 4 ml of ice cold 50 mM Tris buffer, pH 7.4. The filters were transferred to scintillation vials, equilibated with 10 ml of scintillant (Scintosol, Isolab, Inc.) for 16 hours at 25° C. and the radioactivity determined in a liquid scintillation counter. Ki values were determined as described by Billard et al. using the relationship Ki =IC50 /(1+([L]/KD)) wherein IC50 =concentration of test drug necessary to displace 50% of specifically bound ^3 H-Sch 23390, [L]=concentration of radioligand used in the assay, and KD =dissociation constant.

Experiment [2] relates to conditioned avoidance response (CAR). Briefly: Conditioned avoidance suppression in rats (Rat CAR). To be noted: lowest dose that significantly (P<0.05) reduced avoidance responding, read-out: Rat CAR, minimal effective dose (MED). Type of experiment: in vivo. The procedure: N. Y. Acad. Sci. 66, 740 (1957)}. A series of experiments was carried out to assess the ability of the compounds of this invention to suppress the conditioned avoidance response (CAR) in rats.
Rats were required to jump onto a platform located 6.75 inches (17.15 cm) above the grid floor of an experimental chamber in response to a 5-second tone to avoid a 10-second foot shock (0.6 ma). Each experimental session consisted of 20 such trials presented at 30-second intervals. A correct CAR is scored whenever the rat jumps onto the platform during the tone (prior to foot shock). An escape response is scored when the rat jumps onto the platform during a shock. A response failure is defined as the lack of an escape response during the 10-second shock period.
Groups of 6-8 rats were trained in two consecutive days (total of 40 trials). Rats that reached criterion on day 2 (correct CARs on 16 or more of the 20 trials) were treated with either a test drug or vehicle on day 3. Suppression of CAR was analyzed statistically using Student's t-test comparing the performances of drug-treated to vehicle-treated rats.

In experiment [3] the target is T2, dopamine D-1 receptor (Rattus norvegicus, UniProt P18901).
T2 construct: Striatal tissue was excised, pooled, and homogenized; tissue Charles River Breeding Laboratories, Mass; (animals); host or cells: striatum of male Sprague-Dawley rats, washed membrane pellet
T2 sequence (P18901 whole entry): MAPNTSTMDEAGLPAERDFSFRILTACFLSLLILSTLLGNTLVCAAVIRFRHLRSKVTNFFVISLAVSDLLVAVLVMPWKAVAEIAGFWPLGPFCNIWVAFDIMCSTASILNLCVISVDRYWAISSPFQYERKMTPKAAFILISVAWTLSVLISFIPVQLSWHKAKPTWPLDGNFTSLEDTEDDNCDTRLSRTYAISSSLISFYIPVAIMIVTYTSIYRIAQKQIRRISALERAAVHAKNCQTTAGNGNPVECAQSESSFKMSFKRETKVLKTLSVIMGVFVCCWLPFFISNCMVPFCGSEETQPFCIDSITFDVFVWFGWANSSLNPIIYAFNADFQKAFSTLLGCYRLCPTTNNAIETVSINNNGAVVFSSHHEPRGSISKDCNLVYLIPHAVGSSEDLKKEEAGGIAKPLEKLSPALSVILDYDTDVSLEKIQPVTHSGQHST
In words: Competitive inhibition assay vs. 3H-SCH 23390 (dopamine D-1 receptor binding). Further details: species or system Male Sprague-Dawley rat (striatal tissue). The procedure:
as §1, §2, §3, §4

Structures are written as SMILES. Where two headings read alike, the source gives them in different places.

As for `C=CCC1CN(C)CCc2cc(Cl)c(OC(=O)COC)cc21` (centres unmarked) [Compound 18, 8-chloro-7-(methoxy-acetoxy)-5-allyl-3-methyl-2,3,4,5-tetrahydro-lH-3-benzazepine], the Ki in experiment [1] is 566 nM; in experiment [3] (rat striatal homogenate, 0.3 nM 3H-SCH 23390, pH 7.4, 37° C., 15 min, read-out: Ki vs. 3H-SCH 23390) it was 10.3 nM. Besides, the minimal effective dose in experiment [2] (po) is 100 mg/kg; in experiment [2] (sc) it was less than 0.3 mg/kg.

For the molecule `CCOC1CN(C)CCc2cc(Cl)c(O)cc21` (centres unmarked) [Compound 2, 8-chloro-5-ethoxy-3-methyl-2,3,4,5-tetrahydro-lH-3-benzazepine-7-ol], the inhibition constant Ki in experiment [1] was 7720 nM; in experiment [3], 34 nM. In addition, the minimal effective dose in experiment [2] (po) is greater than 30 mg/kg; in experiment [2] (sc), 1 mg/kg.
